# Source: ChEMBL document CHEMBL1140215, “Discovery of sodium R-(+)-4-{2-[5-(2-fluoro-3-methoxyphenyl)-3-(2-fluoro-6-[trifluoromethyl]benzyl)-4-methyl-2,6-dioxo-3,6-dihydro-2H-pyrimidin-1-yl]-1-phenylethylamino}butyrate (elagolix), a potent and orally available nonpeptide antagonist of the human gonadotropin-releasing hormone receptor” (J Med Chem, 2008)
# Calls of active or inactive are those of the source. The rule behind the calls is not given here.
# Tests used:
# [1] = molecular target: T1, Gonadotropin-releasing hormone receptor (Homo sapiens, UniProt P30968); assay: Displacement of [125I-Tyr5,DLeu6,NMeLeu7,Pro9-NEt-]GnRH from human GnRH receptor expressed in HEK293 cells by liquid scintillation counting; type: cell-based
# T1 sequence (P30968 whole entry): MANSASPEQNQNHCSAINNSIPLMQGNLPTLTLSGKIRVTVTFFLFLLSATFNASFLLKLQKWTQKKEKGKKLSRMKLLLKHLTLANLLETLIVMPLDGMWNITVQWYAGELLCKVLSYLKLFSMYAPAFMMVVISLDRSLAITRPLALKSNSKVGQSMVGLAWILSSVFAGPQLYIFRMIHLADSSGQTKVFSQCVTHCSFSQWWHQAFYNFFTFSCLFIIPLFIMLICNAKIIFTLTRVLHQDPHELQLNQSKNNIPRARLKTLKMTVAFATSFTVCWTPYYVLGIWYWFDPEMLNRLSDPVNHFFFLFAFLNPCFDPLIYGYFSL
# Cytochrome P450 3A4 = Cytochrome P450 3A4 (Homo sapiens, UniProt P08684); assay: Inhibition of CYP3A4; type: ADME
# Chain of Cytochrome P450 3A4 (P08684 whole entry): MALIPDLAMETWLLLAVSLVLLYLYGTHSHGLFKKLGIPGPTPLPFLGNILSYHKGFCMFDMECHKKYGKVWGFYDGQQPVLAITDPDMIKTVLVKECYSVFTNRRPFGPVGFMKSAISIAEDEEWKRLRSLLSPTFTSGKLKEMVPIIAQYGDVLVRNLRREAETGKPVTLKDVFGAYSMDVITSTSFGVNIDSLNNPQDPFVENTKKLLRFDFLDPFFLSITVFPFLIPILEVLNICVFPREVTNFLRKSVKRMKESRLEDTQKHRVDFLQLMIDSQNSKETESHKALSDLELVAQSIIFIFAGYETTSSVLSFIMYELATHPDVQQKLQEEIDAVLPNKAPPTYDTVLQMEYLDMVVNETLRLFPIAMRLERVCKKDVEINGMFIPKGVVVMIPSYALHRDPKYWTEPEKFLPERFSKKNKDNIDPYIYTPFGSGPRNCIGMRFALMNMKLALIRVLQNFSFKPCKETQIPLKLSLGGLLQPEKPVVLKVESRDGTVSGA
# [2] = Volume of distribution in rat at 3 mg/kg, iv; type: ADME, organism-based; design: dose 3 mg/kg, route intravenous; settings: in vivo
# [3] = Plasma clearance in rat at 3 mg/kg, iv; type: ADME, organism-based; design: dose 3 mg/kg, route intravenous
# [4] = Half life in rat at 3 mg/kg, iv; type: ADME, organism-based; design: dose 3 mg/kg, route intravenous; settings: in vivo
# Caco-2 [5] = assay: Ratio of permeability from apical to basolateral side over basolateral to apical side in human Caco-2 cells; type: ADME, cell-based
# [6] = Apparent permeability across human Caco-2 cell membrane; type: ADME, cell-based
# [7] = Cmax in rat at 3 mg/kg, iv; type: ADME, organism-based; design: dose 3 mg/kg, route intravenous; settings: in vivo
# [8] = Tmax in rat at 3 mg/kg, iv; type: ADME, organism-based; design: dose 3 mg/kg, route intravenous; settings: in vivo
# [9] = Bioavailability in rat at 3 mg/kg, iv; type: ADME, organism-based; settings: in vivo
# [10] = (§1) AUC in rat at 3 mg/kg, iv; type: ADME, organism-based, Plasma; design: dose 3 mg/kg, route intravenous; settings: plasma
# [11] = Volume of distribution in mouse; type: ADME, organism-based; settings: in vivo
# [12] = AUC in Beagle dog at 50 mg/kg, po; type: ADME, organism-based, Canis lupus familiaris; design: dose 50 mg/kg, route oral; settings: plasma
# [13] = Cmax in Beagle dog at 50 mg/kg, po; type: ADME, organism-based, Canis lupus familiaris; design: dose 50 mg/kg, route oral; settings: in vivo
# [14] = Plasma clearance in Beagle dog at 50 mg/kg, po; type: ADME, organism-based, Canis lupus familiaris; design: dose 50 mg/kg, route oral
# [15] = Tmax in rhesus monkey; type: ADME, organism-based, Macaca mulatta; settings: in vivo
# Mast cell = assay: Induction of histamine release in rat peritoneal mast cells; type: functional, cell-based
# [16] = Half life in rhesus monkey; type: ADME, organism-based, Macaca mulatta; settings: in vivo
# [17] = Cmax in mouse; type: ADME, organism-based; settings: in vivo
# [18] = Volume of distribution in rhesus monkey; type: ADME, organism-based, Macaca mulatta; settings: in vivo
# Caco-2 [19] = assay: Ratio of permeability from apical to basolateral side over basolateral to apical side in human Caco-2 cells at 1 mM; type: ADME, cell-based; settings: caco-2, 1000 µM
# [20] = Plasma clearance in rhesus monkey; type: ADME, organism-based, Macaca mulatta
# [21] = Oral bioavailability in rhesus monkey; type: ADME, organism-based, Macaca mulatta; settings: in vivo
# [22] = molecular target: T2, Gonadotropin-releasing hormone receptor (Macaca mulatta, UniProt Q8SPZ1); assay: Displacement of [125I-Tyr5,DLeu6,NMeLeu7,Pro9-NEt-]GnRH from monkey GnRH receptor expressed in CHO cells by liquid scintillation counting; type: cell-based
# T2 sequence (Q8SPZ1 whole entry): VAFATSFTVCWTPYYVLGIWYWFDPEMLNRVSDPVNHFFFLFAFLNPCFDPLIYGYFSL
# [23] = Bioavailability in Beagle dog at 50 mg/kg; type: ADME, organism-based, Canis lupus familiaris; settings: in vivo
# [24] = Half life in mouse; type: ADME, organism-based; settings: in vivo
# [25] = Oral bioavailability in mouse; type: ADME, organism-based; settings: in vivo
# Canis familiaris = assay: Volume of distribution in Beagle dog at 50 mg/kg, po; type: ADME, organism-based, Canis lupus familiaris; design: dose 50 mg/kg, route oral; settings: in vivo
# [26] = AUC in mouse; type: ADME, organism-based; settings: plasma
# [27] = Tmax in mouse; type: ADME, organism-based; settings: in vivo
# Cynomolgus monkey [28] = assay: Suppression of circulating plasma LH levels in cynomolgus monkey at 30 mg/kg, po after 8 hrs; type: functional, Macaca fascicularis
# [29] = Cmax in rhesus monkey; type: ADME, organism-based, Macaca mulatta; settings: in vivo
# [30] = Tmax in Beagle dog at 50 mg/kg, po; type: ADME, organism-based, Canis lupus familiaris; design: dose 50 mg/kg, route oral; settings: in vivo
# [31] = Lipophilicity, log D of the compound; type: physicochemical; settings: octanol/water
# [32] = AUC in rhesus monkey; type: ADME, organism-based, Macaca mulatta; settings: plasma
# [33] = molecular target: T3, Gonadotropin-releasing hormone receptor (Rattus norvegicus, UniProt P30969); assay: Displacement of [125I-Tyr5,DLeu6,NMeLeu7,Pro9-NEt-]GnRH from rat GnRH receptor expressed in CHO cells by liquid scintillation counting; type: cell-based
# T3 sequence (P30969 whole entry): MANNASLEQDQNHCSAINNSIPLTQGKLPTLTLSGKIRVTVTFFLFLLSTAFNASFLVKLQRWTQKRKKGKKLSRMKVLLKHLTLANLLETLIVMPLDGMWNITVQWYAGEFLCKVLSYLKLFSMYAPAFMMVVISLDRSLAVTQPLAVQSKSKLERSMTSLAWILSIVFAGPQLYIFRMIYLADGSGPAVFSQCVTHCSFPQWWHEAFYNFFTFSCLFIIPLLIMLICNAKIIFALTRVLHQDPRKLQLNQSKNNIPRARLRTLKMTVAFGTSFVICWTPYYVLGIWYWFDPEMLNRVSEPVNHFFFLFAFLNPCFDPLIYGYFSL
# [34] = molecular target: T1, Gonadotropin-releasing hormone receptor; assay: Antagonist activity at human GnRH receptor expressed in RBL1 cells assessed as inhibition of GnRH-stimulated inositol phosphate production; type: functional, cell-based, RBL-1
# [35] = Plasma clearance in mouse; type: ADME, organism-based
# [36] = Half life in Beagle dog at 50 mg/kg, po; type: ADME, organism-based, Canis lupus familiaris; design: dose 50 mg/kg, route oral; settings: in vivo
# [37] = AUC in rat at 10 mg/kg, iv and 10 mg/kg, po; type: ADME, organism-based; settings: plasma
# [38] = Cmax in rat at 10 mg/kg, iv and 10 mg/kg, po; type: ADME, organism-based; settings: in vivo
# [39] = Tmax in rat at 10 mg/kg, iv and 10 mg/kg, po; type: ADME, organism-based; settings: in vivo
# Cynomolgus monkey [40] = assay: Suppression of circulating plasma LH levels in cynomolgus monkey at 30 mg/kg, po after 4 to 8 hrs; type: functional, Macaca fascicularis
# [41] = Half life in rat at 10 mg/kg, iv and 10 mg/kg, po; type: ADME, organism-based; settings: in vivo
# [42] = Oral bioavailability in rat at 10 mg/kg, iv and 10 mg/kg, po; type: ADME, organism-based; settings: in vivo
# [43] = Volume of distribution in rat at 10 mg/kg, iv and 10 mg/kg, po; type: ADME, organism-based; settings: in vivo
# [44] = Plasma clearance in rat at 10 mg/kg, iv and 10 mg/kg, po; type: ADME, organism-based
# Rattus norvegicus = assay: as §1; type: ADME, organism-based, Plasma; design: dose 3 mg/kg, route intravenous; settings: in vivo
smiles,measurement,setting,value
COc1cccc(-c2c(C)n(Cc3c(F)cccc3C(F)(F)F)c(=O)n(C[C@H](NCCCCC(=O)O)c3ccccc3)c2=O)c1F,Ki,[1],7.6 nM
same,IC50,Cytochrome P450 3A4,29000 nM
COc1cccc(-c2c(C)n(Cc3c(F)cccc3C(F)(F)F)c(=O)n(C[C@@H](c3ccccc3)N(C)CCCC(=O)O)c2=O)c1F,Vd,[2],3.2 L/kg
same,clearance,[3],26.4 mL/min/kg
same,half-life,[4],2.6 h
same,Ki,[1],3.7 nM
same,Ratio,Caco-2 [5],4
same,Papp,[6],7.5 ×10⁻⁶ cm/s
same,Cmax,[7],592 ng/mL
same,Tmax,[8],0.25 h
same,bioavailability,[9],3.7%
same,AUC,[10],385 ng·h/mL
same,IC50,Cytochrome P450 3A4,69000 nM
COc1cccc(-c2c(C)n(Cc3c(F)cccc3C(F)(F)F)c(=O)n(C[C@H](NCCCC(=O)[O-])c3ccccc3)c2=O)c1F.[Na+] [ELAGOLIX SODIUM],Vd,[11],1.4 L/kg
same,Vd,[2],2.6 L/kg
same,AUC,[12],80700 ng·h/mL
same,clearance,[3],33.3 mL/min/kg
same,Cmax,[13],13900 ng/mL
same,CL/F,[14],14.5 mL/min/kg
same,Tmax,[15],0.69 h
same,Activity,Mast cell,inactive
same,half-life,[16],1.1 h
same,Cmax,[17],741 ng/mL
same,Vd,[18],2.5 L/kg
same,Ratio,Caco-2 [19],1.3
same,clearance,[20],25.7 mL/min/kg
same,bioavailability,[21],11%
same,Ki,[22],3.3 nM
same,bioavailability,[23],100%
same,half-life,[24],0.3 h
same,bioavailability,[25],10%
same,Vd,Canis familiaris,0.92 L/kg
same,AUC,[26],326 ng·h/mL
same,Tmax,[27],0.25 h
same,Activity,Cynomolgus monkey [28],75%
same,Cmax,[29],518 ng/mL
same,half-life,[4],0.9 h
same,Tmax,[30],2 h
same,logD,[31],2
same,Ki,[1],0.9 nM
same,AUC,[32],699 ng·h/mL
same,Ki,[33],4400 nM
same,Ratio,Caco-2 [5],9.2
same,Papp,[6],2.8 ×10⁻⁶ cm/s
same,Cmax,[7],338 ng/mL
same,IC50,[34],1.5 nM
same,Tmax,[8],0.25 h
same,bioavailability,[9],5.8%
same,clearance,[35],50 mL/min/kg
same,AUC,[10],290 ng·h/mL
same,half-life,[36],2.8 h
same,IC50,Cytochrome P450 3A4,56000 nM
COc1cccc(-c2c(C)n(Cc3c(F)cccc3Cl)c(=O)n(C[C@H](NCCCC(=O)O)c3ccccc3)c2=O)c1F,Ki,[1],1.1 nM
same,IC50,[34],3.2 nM
same,IC50,Cytochrome P450 3A4,11000 nM
COc1cccc(-c2c(C)n(Cc3c(F)cccc3C(F)(F)F)c(=O)n(C[C@H](NCC(=O)O)c3ccccc3)c2=O)c1F,Ki,[1],71 nM
COc1cccc(-c2c(C)n(Cc3c(F)cccc3C(F)(F)F)c(=O)n(C[C@H](N)c3ccccc3)c2=O)c1F,AUC,[37],46 ng·h/mL
same,Cmax,[38],15 ng/mL
same,Ki,[33],1200 nM
same,IC50,[34],0.5 nM
same,Tmax,[39],1.2 h
same,IC50,Cytochrome P450 3A4,230 nM
COc1cccc(-c2c(C)n(Cc3c(F)cccc3F)c(=O)n(C[C@H](N)c3ccccc3)c2=O)c1F,AUC,[37],106 ng·h/mL
same,Activity,Cynomolgus monkey [40],50%
same,half-life,[41],1.3 h
same,bioavailability,[42],3.5%
same,Cmax,[38],24.2 ng/mL
same,logD,[31],1.8
same,Papp,[6],17.6 ×10⁻⁶ cm/s
same,Tmax,[39],1 h
same,Vd,[43],7.1 L/kg
same,clearance,[44],64.7 mL/min/kg
same,IC50,Cytochrome P450 3A4,700 nM
COC(=O)CCCN[C@@H](Cn1c(=O)c(-c2cccc(OC)c2F)c(C)n(Cc2c(F)cccc2C(F)(F)F)c1=O)c1ccccc1,Ki,[1],4.2 nM
same,IC50,Cytochrome P450 3A4,440 nM
COc1cccc(-c2c(C)n(Cc3c(F)cccc3F)c(=O)n(C[C@H](NCCCC(=O)O)c3ccccc3)c2=O)c1F,Vd,[2],8.5 L/kg
same,half-life,[4],4.5 h
same,logD,[31],0.2
same,Ki,[1],2.1 nM
same,Ki,[33],> 10000 nM
same,Ratio,Caco-2 [5],51
same,Papp,[6],0.4 ×10⁻⁶ cm/s
same,Cmax,[7],25 ng/mL
same,IC50,[34],27 nM
same,Tmax,[8],0.8 h
same,bioavailability,[9],1.1%
same,AUC,Rattus norvegicus,81 ng·h/mL
same,IC50,Cytochrome P450 3A4,135000 nM
COc1cccc(-c2c(C)n(Cc3c(F)cccc3C(F)(F)F)c(=O)n(C[C@H](NCCC(=O)O)c3ccccc3)c2=O)c1F,Ki,[1],12 nM
same,IC50,Cytochrome P450 3A4,69000 nM
